Experiment [1] has as its target T1, ROCK1 (Homo sapiens (Human), UniProt Q13464). The experiment is described as follows: ROCK1 phosphorylation activity (Reaction Biology, radiometric). It is filed as biochemical, H. sapiens. The protocol: (§1) Phosphorylation of activity of ROCK1 and ROCK2 and those of other kinases, AKT1, GRK2, PKA, PKCa and RSK1 were performed by Reaction Biology (Malvern, Pa.) (Ma et al., 2008) The ROCK1 enzyme tested was GST[1-535] ROCK1 (Genbank, NP 005397), ROCK2 was GST[5-554] (Genbank, 3327051). For the kinase assay buffers contained 20 mM Hepes, 10 mM MgCl2, 2 mM DTT, 0.02 mg/mL BSA, 0.1% DMSO, 1 mM EGTA, 0.02% Brij-35, 10 uM ATP, [γP^33]-ATP and for ROCK enzymes, 20 uM long S6-peptide (32 amino acids length). Appropriate substrates and activation was applied for the other kinases tested. Each enzyme was preincubated with test compound for 15 min., and the reaction started by addition of ATP. Samples were incubated at room temperature for 120 min, and applied to P81 ion exchange paper and washed extensively; the radioactive content of the filters were determined. […] Selectivity ratio is the value for PKA/ROCK2.
Target sequence in this assay (Q13464 1-535): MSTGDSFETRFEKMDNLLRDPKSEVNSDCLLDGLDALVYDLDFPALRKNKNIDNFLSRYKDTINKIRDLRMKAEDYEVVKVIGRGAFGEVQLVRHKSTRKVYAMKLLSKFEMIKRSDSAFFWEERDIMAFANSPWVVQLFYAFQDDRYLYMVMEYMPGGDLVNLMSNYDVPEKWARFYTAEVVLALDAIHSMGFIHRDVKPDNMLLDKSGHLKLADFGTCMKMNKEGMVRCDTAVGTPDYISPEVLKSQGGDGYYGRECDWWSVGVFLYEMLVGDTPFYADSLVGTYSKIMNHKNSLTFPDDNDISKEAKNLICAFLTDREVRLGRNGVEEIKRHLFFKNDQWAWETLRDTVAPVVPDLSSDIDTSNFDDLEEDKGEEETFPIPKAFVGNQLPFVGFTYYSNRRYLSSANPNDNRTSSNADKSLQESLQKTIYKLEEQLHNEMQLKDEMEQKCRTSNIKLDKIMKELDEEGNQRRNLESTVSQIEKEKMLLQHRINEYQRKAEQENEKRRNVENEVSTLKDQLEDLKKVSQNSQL

Experiment [2] concerns the target T2, ROCK2 (Homo sapiens (Human), UniProt O75116). The experiment is described as follows: Kinase binding panel (KINOMEscan), ROCK2. The following applies: table under Kinase Binding Panel. The protocol: (§2) Kinase inhibition potency was measured using KINOMEscan™ technology across 402 human kinases [Fabian et al., Nat Biotechnol. 2005 March; 23(3):329-36] (DiscoverRx, Inc., (Fremont, Calif.)). The assay is based on a competition binding assay which quantitatively measures the ability of a compound to compete with an immobilized, active-site directed ligand. […] 2008 January; 26(1):127-32; Fabian et al., Nat Biotechnol. 2005 March; 23(3):329-36]. The assay is performed by combining three components: DNA-tagged kinase; immobilized ligand; and a test compound. Binding reactions were assembled by combining, for 1 hr at room temperature, kinases, liganded affinity beads, and test compounds in binding buffer (20% SeaBlock, 0.17×PBS, 0.05% Tween-20, 6 mM DTT). The assay plates were washed and then re-suspended in elution buffer for 30 min. (PBS, 0.05% Tween 20, 0.5 μM non-biotinylated affinity ligand). The kinase concentration in the eluates was measured by qPCR.

Experiment [3] concerns TNF-a secretion from LPS stimulated hPBMC. In words: Inhibition of TNF-a secretion from LPS stimulated hPBMC. The class given is cell-based, human. The settings on record: LPS for 24 hours. The protocol:
Measurement of the inhibition of cytokine secretion from stimulated human peripheral blood mononuclear cells by drugs was performed as described in Dong C. et al., J Pharmacol Exp Ther. 2013 February; 344(2):436-46; and Akama T. et al., Bioorg Med Chem Lett. 2013 Mar. 15; 23(6):1680-3. Briefly PBMC were incubated with drug, and stimulators; LPS for 24 hours to release TNF-α, and IL-6; PHA for 24 hours, to release IL-2 and IFN-γ, and PHA for 48 hours, to release IL-5 and IL-13. The cell culture supernatants were collected for cytokine determinations using Cisbio HTRF cytokine determination kits. Compounds were prepared using an eight point 1:10 dilution series starting at 10 or 100 uM; the resulting dose-response curves were fit to the four parameter sigmoid equation.

The next experiment concerns the target AKT1 (Homo sapiens (Human), UniProt P31749). The experiment is described as follows: AKT1 phosphorylation activity. The class given is biochemical. The following applies: 10 uM ATP. On the procedure:
as §1

The next experiment concerns the target GRK2 (Homo sapiens (Human), UniProt P25098). In words: GRK2 phosphorylation activity. It is filed as biochemical. The following applies: 10 uM ATP. The protocol:
as §1

A further experiment addresses RSK1 (Homo sapiens (Human), UniProt Q15418). The experiment is described as follows: RSK1 phosphorylation activity. It is filed as biochemical. The settings on record: 10 uM ATP. On the procedure:
as §1

Experiment [4] has as its system p-MYPT1 phosphorylation in PANC-1 cells. In words: Intracellular MYPT1 phosphorylation assay in PANC-1 cells. The class given is cell-based, H. sapiens. The following applies: Homo sapiens. The protocol:
Intracellular MYPT1 phosphorylation assay used the procedures of Garton et al. with minor modifications (Garton et al. Methods Enzymol. 2008; 439:491-500). PANC-1 cells (ACTT, CRL-1469), 18×10^3/well, grown over night in DMEM medium supplemented with 4.5 g/L glucose, L-glutamine, sodium pyruvate and 10% FBS at 37° C. Compounds were applied to the cells for one hour (DMSO final 1%) and the cells were then lysed. Phosphorylated-MYPT1 was detected using plate immobilized anti-MYPT1 antibody (BD Biosciences, cat. 612165), anti-phospo-MYPT1([…]), US Biological, cat. M9925-08) and secondary HRP-conjugated goat anti-rabbit IgG antibody (Jackson Laboratories, cat. 111-035-003), phospho-MYPT1 was quantified using color formed by the tetramethylbenzidine (TMB) HRP substrate.

Experiment [5] deals with T1, ROCK1. The experiment is described as follows: Kinase binding panel (KINOMEscan), ROCK1. The following applies: table under Kinase Binding Panel. The protocol:
as §2
Target sequence in this assay (Q13464 whole entry): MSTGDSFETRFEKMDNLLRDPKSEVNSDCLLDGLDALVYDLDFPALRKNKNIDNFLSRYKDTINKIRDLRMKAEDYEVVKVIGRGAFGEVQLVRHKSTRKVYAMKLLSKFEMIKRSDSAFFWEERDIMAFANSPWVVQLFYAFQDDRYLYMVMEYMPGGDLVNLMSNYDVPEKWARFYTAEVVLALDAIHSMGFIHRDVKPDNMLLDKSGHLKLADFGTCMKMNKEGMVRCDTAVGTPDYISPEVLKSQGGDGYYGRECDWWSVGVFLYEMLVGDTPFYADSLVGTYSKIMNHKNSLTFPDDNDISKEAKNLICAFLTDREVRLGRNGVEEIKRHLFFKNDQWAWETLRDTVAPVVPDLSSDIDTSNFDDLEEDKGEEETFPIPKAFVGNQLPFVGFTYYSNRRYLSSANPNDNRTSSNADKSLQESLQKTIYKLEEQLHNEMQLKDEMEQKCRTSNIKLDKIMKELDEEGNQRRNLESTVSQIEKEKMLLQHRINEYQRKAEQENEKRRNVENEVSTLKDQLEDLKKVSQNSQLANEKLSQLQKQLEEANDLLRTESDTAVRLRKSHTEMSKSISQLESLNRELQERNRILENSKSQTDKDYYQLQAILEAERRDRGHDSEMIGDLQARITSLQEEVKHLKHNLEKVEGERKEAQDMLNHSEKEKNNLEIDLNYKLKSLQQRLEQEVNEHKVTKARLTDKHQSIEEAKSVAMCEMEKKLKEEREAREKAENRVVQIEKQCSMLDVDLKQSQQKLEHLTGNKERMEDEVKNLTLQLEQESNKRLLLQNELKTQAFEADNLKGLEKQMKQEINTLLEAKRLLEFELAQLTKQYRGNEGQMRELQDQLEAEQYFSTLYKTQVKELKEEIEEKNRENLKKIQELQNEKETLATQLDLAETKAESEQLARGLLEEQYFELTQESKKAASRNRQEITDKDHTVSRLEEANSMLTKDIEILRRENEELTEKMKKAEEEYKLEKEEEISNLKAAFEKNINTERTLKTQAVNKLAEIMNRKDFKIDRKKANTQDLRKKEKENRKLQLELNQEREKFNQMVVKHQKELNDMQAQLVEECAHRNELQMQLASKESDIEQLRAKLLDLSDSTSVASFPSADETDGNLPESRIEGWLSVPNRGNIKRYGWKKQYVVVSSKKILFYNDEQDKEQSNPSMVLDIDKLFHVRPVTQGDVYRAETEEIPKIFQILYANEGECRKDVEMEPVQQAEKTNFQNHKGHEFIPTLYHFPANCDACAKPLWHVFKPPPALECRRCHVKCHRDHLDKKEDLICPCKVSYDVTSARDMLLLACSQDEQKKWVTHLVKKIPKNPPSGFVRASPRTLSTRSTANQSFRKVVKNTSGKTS

For experiment [6], the target named is T2, ROCK2. The experiment is described as follows: ROCK2 phosphorylation activity (Reaction Biology, radiometric). The class given is biochemical. The settings on record: for IC50: 10 uM ATP. On the procedure: as §1
Target sequence in this assay (O75116 5-554): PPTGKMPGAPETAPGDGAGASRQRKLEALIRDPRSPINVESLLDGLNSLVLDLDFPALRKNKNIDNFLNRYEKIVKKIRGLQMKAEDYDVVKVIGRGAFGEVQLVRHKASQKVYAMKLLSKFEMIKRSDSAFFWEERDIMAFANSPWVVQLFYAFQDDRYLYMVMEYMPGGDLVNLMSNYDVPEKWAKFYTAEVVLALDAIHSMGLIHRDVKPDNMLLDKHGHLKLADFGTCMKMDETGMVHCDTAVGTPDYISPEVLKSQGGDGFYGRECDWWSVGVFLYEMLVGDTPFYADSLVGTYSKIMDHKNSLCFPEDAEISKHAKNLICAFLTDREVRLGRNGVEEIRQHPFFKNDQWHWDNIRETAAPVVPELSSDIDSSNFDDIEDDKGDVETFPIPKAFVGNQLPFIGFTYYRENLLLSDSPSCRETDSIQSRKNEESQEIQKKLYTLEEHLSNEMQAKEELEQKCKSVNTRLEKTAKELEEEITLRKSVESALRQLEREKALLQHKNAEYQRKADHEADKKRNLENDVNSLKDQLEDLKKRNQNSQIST
The target of the next experiment is PKA (Homo sapiens (Human), UniProt P17612). The experiment is described as follows: PKA phosphorylation activity. The class given is biochemical. The following applies: 10 uM ATP. The protocol: as §1
For a further experiment, the target named is PKCa (Homo sapiens (Human), UniProt P17252). The experiment is described as follows: PKCa phosphorylation activity. It is filed as biochemical. The following applies: 10 uM ATP. On the procedure: as §1
Where [7] appears, read: read-out: IC50: ROCK1: H. sapiens.
The mark [8] stands for this setting: read-out: Inhibition of hROCK1 Phosphorylation [IC50.
Setting [9] is: PANC-1 cells, .0417 days (compounds applied for one hour), read-out: IC50: Inhib p-MYPT1 Phosphorylation in H. sapiens PANC-1 cells, .0417 days.
Where [10] appears, read: 10 uM ATP, read-out: ROCK1 IC50.

Here are results for ten compounds from patent US9493490B1, “Boron-containing small molecules” (Anacor Pharmaceuticals, Inc., priority 2013, dated 2016).

Read-outs that look alike come from different tables or passages of the source.

Chain of RSK1 (Q15418 whole entry, species assumed): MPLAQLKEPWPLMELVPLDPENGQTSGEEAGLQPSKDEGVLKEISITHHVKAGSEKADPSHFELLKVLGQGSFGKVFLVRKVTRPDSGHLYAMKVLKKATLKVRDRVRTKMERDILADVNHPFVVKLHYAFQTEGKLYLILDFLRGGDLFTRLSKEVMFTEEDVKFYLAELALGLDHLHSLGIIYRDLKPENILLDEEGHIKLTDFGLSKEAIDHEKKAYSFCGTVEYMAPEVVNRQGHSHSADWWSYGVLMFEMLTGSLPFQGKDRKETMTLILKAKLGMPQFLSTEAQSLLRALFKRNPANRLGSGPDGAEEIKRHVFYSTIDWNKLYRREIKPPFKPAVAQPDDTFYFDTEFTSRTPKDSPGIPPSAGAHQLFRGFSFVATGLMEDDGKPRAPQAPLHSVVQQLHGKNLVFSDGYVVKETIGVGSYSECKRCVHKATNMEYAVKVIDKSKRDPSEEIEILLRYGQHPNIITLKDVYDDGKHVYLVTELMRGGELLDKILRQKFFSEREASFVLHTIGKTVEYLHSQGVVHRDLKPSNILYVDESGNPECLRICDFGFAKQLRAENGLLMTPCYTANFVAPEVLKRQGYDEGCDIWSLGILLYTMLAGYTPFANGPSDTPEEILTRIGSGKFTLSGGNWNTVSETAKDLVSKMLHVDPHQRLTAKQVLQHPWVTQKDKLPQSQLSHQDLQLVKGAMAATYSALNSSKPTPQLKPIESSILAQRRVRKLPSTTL
Chain of AKT1 (P31749 whole entry, species assumed): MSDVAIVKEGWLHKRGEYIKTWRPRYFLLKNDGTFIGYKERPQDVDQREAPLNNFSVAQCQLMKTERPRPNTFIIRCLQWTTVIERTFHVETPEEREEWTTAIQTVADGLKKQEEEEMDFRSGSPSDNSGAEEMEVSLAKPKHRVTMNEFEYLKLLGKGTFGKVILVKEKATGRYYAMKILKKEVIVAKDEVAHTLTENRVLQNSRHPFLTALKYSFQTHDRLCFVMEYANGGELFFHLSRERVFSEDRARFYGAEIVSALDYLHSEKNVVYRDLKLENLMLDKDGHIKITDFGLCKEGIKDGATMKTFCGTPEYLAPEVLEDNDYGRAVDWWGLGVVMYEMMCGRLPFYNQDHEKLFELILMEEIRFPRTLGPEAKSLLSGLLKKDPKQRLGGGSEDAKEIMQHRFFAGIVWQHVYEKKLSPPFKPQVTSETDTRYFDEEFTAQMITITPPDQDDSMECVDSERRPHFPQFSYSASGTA
Chain of GRK2 (P25098 whole entry, species assumed): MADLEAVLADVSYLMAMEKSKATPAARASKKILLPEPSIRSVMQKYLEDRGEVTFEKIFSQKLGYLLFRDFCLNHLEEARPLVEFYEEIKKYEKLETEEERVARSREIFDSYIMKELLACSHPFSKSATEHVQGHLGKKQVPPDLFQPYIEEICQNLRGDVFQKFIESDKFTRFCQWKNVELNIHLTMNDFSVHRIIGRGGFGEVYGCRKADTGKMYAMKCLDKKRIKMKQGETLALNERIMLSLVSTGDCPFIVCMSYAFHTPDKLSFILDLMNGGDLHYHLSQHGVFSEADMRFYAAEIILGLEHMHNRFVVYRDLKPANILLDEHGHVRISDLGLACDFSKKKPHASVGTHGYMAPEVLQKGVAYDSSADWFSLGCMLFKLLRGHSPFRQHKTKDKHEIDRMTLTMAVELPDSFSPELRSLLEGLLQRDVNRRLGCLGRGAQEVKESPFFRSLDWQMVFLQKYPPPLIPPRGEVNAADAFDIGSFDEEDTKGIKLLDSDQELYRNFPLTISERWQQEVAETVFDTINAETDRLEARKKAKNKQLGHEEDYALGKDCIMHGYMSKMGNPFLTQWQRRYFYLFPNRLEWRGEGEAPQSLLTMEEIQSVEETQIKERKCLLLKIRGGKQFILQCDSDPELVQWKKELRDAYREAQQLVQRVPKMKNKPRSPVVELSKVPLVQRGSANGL

One may read the IC50 as the concentration at which inhibition is half-maximal. As to `Cc1c(Oc2ccc(C(C)N)cc2F)ccc2c1B(O)OC2.Cl` (single isomer, unassigned) [F], the IC50 was 0.54 µM at ROCK1 [1] (setting [7]); 0.54 µM on ROCK1 [1] (setting [8]); 0.51 µM on ROCK2 [2]; 20.5 µM in experiment [3]; 44.1 µM against AKT1; above 20 µM on GRK2. Besides, the IC50 on RSK1 was 17.2 µM; in [4] (setting [9]), 56.4 µM; at ROCK1 [5] it was 0.54 µM; at PKA, 11 µM; against PKCa it was above 20 µM. At ROCK2 [6] (value for PKA/ROCK2), the “SELECTIVITY RATIO” value stood at 21.51.
With `NCc1ccc(Oc2ccc3c(c2Cl)B(O)OC3)c(Cl)c1` [B, 6-(4-(aminomethyl)-2-chlorophenoxy)-7-chlorobenzo[c][1,2]oxaborol-1(3H)-ol], the half-inhibitory concentration (IC50) amounted to 11 µM on ROCK1 [1] (setting [8]), 16 µM at ROCK2 [2], 99 µM in [3] (Homo sapiens) and 23 µM at ROCK1 [5].
`Cc1c(Oc2cccc(CN)c2F)ccc2c1B(O)OC2` [M, 6-(3-(aminomethyl)-2-fluorophenoxy)-7-methylbenzo[c][1,2]oxaborol-1(3H)-ol]: the IC50 was 0.25 µM at ROCK1 [1] (setting [10]); 0.247 µM at ROCK1 [1] (setting [8]); 0.216 µM on ROCK2 [2]; above 30 µM at AKT1; above 30 µM against GRK2; 5.19 µM against RSK1. Further, the half-maximal inhibitory concentration (IC50) at ROCK1 [5] is 0.247 µM; at ROCK2 [6], 0.22 µM; against PKA it was 3.38 µM; at PKCa, above 30 µM. The “SELECTIVITY RATIO” value at ROCK2 [6] (value for PKA/ROCK2) stood at 15.65.
Consider `CC(C)c1c(Oc2ccc(CN)cc2Cl)ccc2c1B(O)OC2` [N, 6-(4-(aminomethyl)-2-chlorophenoxy)-7-isopropylbenzo[c][1,2]oxaborol-1 (3H)-ol], for which the IC50 on ROCK1 [1] (setting [10]) is 0.06 µM; on ROCK1 [1] (setting [8]), 0.596 µM; on ROCK2 [2] it was 0.0472 µM; in experiment [3] (Homo sapiens) it was 5.63 µM; on AKT1, 4.22 µM; on RSK1, 0.195 µM. In addition, the IC50 turned out to be 0.0596 µM on ROCK1 [5], 0.047 µM against ROCK2 [6], 0.055 µM on PKA and 10.8 µM against PKCa. The “SELECTIVITY RATIO” value on ROCK2 [6] (value for PKA/ROCK2) is recorded as 1.17.
As for `Cc1c(Oc2ccc(C(C)N)cc2F)ccc2c1B(O)OC2` (stereo not shown) [E, 6-(4-(1-aminoethyl)-2-fluorophenoxy)-7-methylbenzo[c][1,2]oxaborol-1(3H)-ol], the IC50 at ROCK1 [1] (setting [7]) is 0.42 µM; at ROCK1 [1] (setting [8]), 0.42 µM; on ROCK2 [2], 0.25 µM; in [3] (Homo sapiens, 24 h) it was 5.4 µM; at AKT1 it was 21.5 µM; against GRK2 it was above 20 µM. In addition, the IC50 at RSK1 is 8.31 µM; in experiment [4] (setting [9]), 39.7 µM; on ROCK1 [5], 0.42 µM; against PKA, 6.09 µM; against PKCa it was above 20 µM. Moreover, the “SELECTIVITY RATIO” value at ROCK2 [6] (value for PKA/ROCK2) was found to be 24.74.
For `Cc1c(Oc2ccc(C(C)N)cc2F)ccc2c1B(O)OC2` (single isomer, unassigned) [G], the IC50 came out at 0.17 µM at ROCK1 [1] (setting [7]); 0.17 µM at ROCK1 [1] (setting [8]); 0.17 µM on ROCK2 [2]; 5.18 µM in [3]; 10.9 µM against AKT1; 13.9 µM against GRK2. Also, the IC50 was 3.62 µM against RSK1; 18.7 µM in [4] (PANC-1, read-out: IC50: Inhib p-MYPT1 Phosphorylation in H. sapiens PANC-1 cells, .0417 days [uM]); 0.17 µM at ROCK1 [5]; 1.79 µM at PKA; 15.6 µM against PKCa. For the same compound, on ROCK2 [6] (value for PKA/ROCK2), the “S[…]” value was 10.40.
Take `CCc1c(Oc2ccc(CN)cc2Cl)ccc2c1B(O)OC2` [A, 6-(4-(Aminomethyl)-2-chlorophenoxy)-7-ethylbenzo[c][1,2]oxaborol-1(3H)-ol]: the IC50 at ROCK1 [1] (setting [8]) stood at 0.29 µM; at ROCK2 [2], 0.25 µM; in experiment [3] (Homo sapiens), 3.61 µM; on ROCK1 [5], 0.29 µM.
In the case of `Cc1c(Oc2cccc(CNC(=O)OC(C)(C)C)c2F)ccc2c1B(O)OC2` [L, tert-butyl 2-fluoro-3-(1-hydroxy-7-methyl-1,3-dihydrobenzo[c][1,2]oxaborol-6-yloxy)benzylcarbamate], the IC50 was 0.72 µM at ROCK1 [1] (setting [8]); 0.664 µM on ROCK2 [2]; above 30 µM against AKT1; above 30 µM against GRK2; 25 µM at RSK1; 0.72 µM on ROCK1 [5]. Further, the IC50 was 0.66 µM against ROCK2 [6], 7.88 µM on PKA and above 30 µM on PKCa. The “SELECTIVITY RATIO” value at ROCK2 [6] (value for PKA/ROCK2) came to 11.87.
`CC(N)c1ccc(Oc2ccc3c(c2)B(O)OC3)c(F)c1.Cl` (stereo not shown) [C, 6-(4-(1-aminoethyl)-2-fluorophenoxy)benzo[c][1,2]oxaborol-1(3H)-ol]: the IC50 at ROCK1 [1] (setting [7]) was 0.54 µM; at ROCK1 [1] (setting [8]), 0.54 µM; at ROCK2 [2] it was 0.45 µM; in [3] (Homo sapiens, 24 h) it was 12 µM; against AKT1, above 30 µM; against GRK2 it was above 20 µM. For the same compound, the IC50 was above 50 µM on RSK1; 48.1 µM in experiment [4] (setting [9]); 0.54 µM on ROCK1 [5]; above 50 µM on PKA; above 20 µM on PKCa. For the same compound, at ROCK2 [6] (value for PKA/ROCK2), the “SELECTIVITY RATIO” value is above 111.
As to `Cc1c(Oc2ccc(CN)cc2F)ccc2c1B(O)OC2` [D, 6-(4-(aminomethyl)-2-fluorophenoxy)-7-methylbenzo[c][1,2]oxaborol-1(3H)-ol], the IC50 on ROCK1 [1] (setting [7]) was 0.34 µM; at ROCK1 [1] (setting [8]) it was 0.34 µM; on ROCK2 [2] it was 0.25 µM; in experiment [3] (Homo sapiens, 24 h), 12.3 µM; at AKT1, 9.25 µM; against GRK2 it was above 20 µM. Besides, the IC50 on RSK1 is 5.01 µM; in experiment [4] (setting [9]), 18.2 µM; at ROCK1 [5] it was 0.34 µM; at PKA, 4.06 µM; at PKCa, above 20 µM. Also, the “SELECTIVITY RATIO” value at ROCK2 [6] (value for PKA/ROCK2) stood at 16.29.
